Experimental data: patent publication US20090312288A1 (TAKEDA PHARMACEUTICAL COMPANY LIMITED, priority 2008, published 2009)

Each compound was assayed against Aurora B/INCENP (Homo sapiens, UniProt Q96GD4) (assay: Determination of inhibition of AIK: Aurora B/INCENP direct fluorescence polarization (IMAP) assay). Details: 10 uM ATP, 0.8 nM Aurora B/INCENP; values given as bins; read-out: IC50 of Exemplified Compounds Against AIK B.
Format: biochemical

Aurora B/INCENP, sequence (Q96GD4 whole entry): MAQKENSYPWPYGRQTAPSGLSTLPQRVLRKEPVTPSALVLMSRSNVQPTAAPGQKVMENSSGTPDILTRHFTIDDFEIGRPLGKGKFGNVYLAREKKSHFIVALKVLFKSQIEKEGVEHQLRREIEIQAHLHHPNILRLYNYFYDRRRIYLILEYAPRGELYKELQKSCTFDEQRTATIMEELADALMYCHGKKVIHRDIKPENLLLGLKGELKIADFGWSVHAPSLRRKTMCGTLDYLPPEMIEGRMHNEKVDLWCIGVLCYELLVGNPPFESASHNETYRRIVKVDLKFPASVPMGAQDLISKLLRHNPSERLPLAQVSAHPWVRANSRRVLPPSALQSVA
Aurora B/INCENP, sequence (Q9NQS7 whole entry partner): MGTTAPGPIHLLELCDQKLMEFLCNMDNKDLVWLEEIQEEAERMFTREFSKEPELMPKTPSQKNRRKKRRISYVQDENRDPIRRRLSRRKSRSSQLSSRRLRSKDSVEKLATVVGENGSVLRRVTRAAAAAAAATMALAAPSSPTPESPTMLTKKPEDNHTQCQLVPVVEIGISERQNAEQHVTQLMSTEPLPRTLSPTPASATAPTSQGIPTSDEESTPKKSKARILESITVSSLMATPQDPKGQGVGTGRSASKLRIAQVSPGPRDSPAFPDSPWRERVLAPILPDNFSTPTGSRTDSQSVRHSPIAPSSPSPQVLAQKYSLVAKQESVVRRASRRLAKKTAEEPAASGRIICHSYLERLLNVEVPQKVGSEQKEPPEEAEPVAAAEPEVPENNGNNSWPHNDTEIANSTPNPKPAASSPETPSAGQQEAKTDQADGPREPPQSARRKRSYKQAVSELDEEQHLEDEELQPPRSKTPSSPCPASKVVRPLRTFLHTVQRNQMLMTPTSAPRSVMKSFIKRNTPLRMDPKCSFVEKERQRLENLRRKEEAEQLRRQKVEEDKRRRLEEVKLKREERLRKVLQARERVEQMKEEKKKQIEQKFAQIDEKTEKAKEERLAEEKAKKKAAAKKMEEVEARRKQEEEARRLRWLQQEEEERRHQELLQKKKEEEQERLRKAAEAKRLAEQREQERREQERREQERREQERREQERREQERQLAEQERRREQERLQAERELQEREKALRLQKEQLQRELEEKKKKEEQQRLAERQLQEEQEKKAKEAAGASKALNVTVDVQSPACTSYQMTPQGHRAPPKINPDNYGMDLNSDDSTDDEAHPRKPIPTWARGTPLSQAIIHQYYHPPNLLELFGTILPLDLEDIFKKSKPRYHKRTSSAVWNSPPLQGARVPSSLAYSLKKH

| IC50 | SMILES |
| --- | --- |
| 5.6 to 8.5 nM | CCS(=O)(=O)c1cccc(-c2ccc(OCCN3CCCC3)c3[nH]c4ncc(Cl)cc4c23)c1 [Compound 223, 3-chloro-5-(3-(ethylsulfonyl)phenyl)-8-(2-(pyrrolidin-1-yl)ethoxy)-9H-pyrido[2,3-b]indole] |
| 5.6 to 8.5 nM | CCS(=O)(=O)c1cccc(-c2ccc(OCCN3CCN(C)CC3)c3[nH]c4ncc(Cl)cc4c23)c1 [Compound 224, 3-chloro-5-(3-(ethylsulfonyl)phenyl)-8-(2-(4-methylpiperazin-1-yl)ethoxy)-9H-pyrido[2,3-b]indole] |
| 5.6 to 8.5 nM | CCS(=O)(=O)c1cccc(-c2ccc(OCCOC(=O)[C@H](C)N)c3[nH]c4ncc(C)cc4c23)c1 [Compound 226, (S)-2-(5-(3-(ethylsulfonyl)phenyl)-3-methyl-9H-pyrido[2,3-b]indol-8-yloxy)ethyl 2-aminopropanoate] |
| 5.6 to 8.5 nM | CCS(=O)(=O)c1cccc(-c2ccc(OCCCOC(=O)[C@H](C)N)c3[nH]c4ncc(C)cc4c23)c1 [Compound 227, (S)-3-(5-(3-(ethylsulfonyl)phenyl)-3-methyl-9H-pyrido[2,3-b]indol-8-yloxy)propyl 2-aminopropanoate] |
| 4 to 5.5 nM | CCS(=O)(=O)c1cccc(-c2ccc(OC[C@@H](O)CO)c3[nH]c4ncc(C)cc4c23)c1 [Compound 230, (S)-3-(5-(3-(ethylsulfonyl)phenyl)-3-methyl-9H-pyrido[2,3-b]indol-8-yloxy)propane-1,2-diol] |
| < 4 nM | CCS(=O)(=O)c1cccc(-c2ccc(OC[C@H](O)CO)c3[nH]c4ncc(C)cc4c23)c1 [Compound 231, (R)-3-(5-(3-(ethylsulfonyl)phenyl)-3-methyl-9H-pyrido[2,3-b]indol-8-yloxy)propane-1,2-diol] |
| 5.6 to 8.5 nM | CCS(=O)(=O)c1cccc(-c2ccc(OC[C@@H](C)O)c3[nH]c4ncc(C)cc4c23)c1 [Compound 233, (R)-1-(5-(3-(ethylsulfonyl)phenyl)-3-methyl-9H-pyrido[2,3-b]indol-8-yloxy)propan-2-ol] |
| 5.6 to 8.5 nM | CCS(=O)(=O)c1cccc(-c2cc(Cl)c(OC)c3[nH]c4ncc(C)cc4c23)c1 [Compound 246, 7-chloro-5-(3-(ethylsulfonyl)phenyl)-8-methoxy-3-methyl-9H-pyrido[2,3-b]indole] |
| > 13 nM | CCS(=O)(=O)c1cccc(-c2cc(Cl)c(OCCCO)c3[nH]c4ncc(C)cc4c23)c1 [Compound 248, 3-(7-chloro-5-(3-(ethylsulfonyl)phenyl)-3-methyl-9H-pyrido[2,3-b]indol-8-yloxy)propan-1-ol] |
| > 13 nM | CCS(=O)(=O)c1cccc(-c2cc(N(C)C(=O)CCN(C)C)c(OC)c3[nH]c4ncc(C)cc4c23)c1 [Compound 254, 3-(dimethylamino)-N-(5-(3-(ethylsulfonyl)phenyl)-8-methoxy-3-methyl-9H-pyrido[2,3-b]indol-7-yl)-N-methylpropanamide] |
| > 13 nM | CCS(=O)(=O)c1cccc(-c2ccc(OCCN3CCOCC3)c3[nH]c4ncc(Cl)cc4c23)c1 [Compound 255, 4-(2-(3-chloro-5-(3-(ethylsulfonyl)phenyl)-9H-pyrido[2,3-b]indol-8-yloxy)ethyl)morpholine] |
| > 13 nM | CCS(=O)(=O)c1cccc(-c2ccc(OCCC#N)c3[nH]c4ncc(Cl)cc4c23)c1 [Compound 256, 3-(3-chloro-5-(3-(ethylsulfonyl)phenyl)-9H-pyrido[2,3-b]indol-8-yloxy)propanenitrile] |
| > 13 nM | CONC(=O)c1cccc(-c2ccc(OC)c3[nH]c4ncc(C)cc4c23)c1 [Compound 260, N-methoxy-3-(8-methoxy-3-methyl-9H-pyrido[2,3-b]indol-5-yl)benzamide] |
| 4 to 5.5 nM | CCN(CCO)CCCOc1ccc(-c2cccc(S(=O)(=O)C3CC3)c2)c2c1[nH]c1ncc(C)cc12 [Compound 270, 2-((3-(5-(3-(cyclopropylsulfonyl)phenyl)-3-methyl-9H-pyrido[2,3-b]indol-8-yloxy)propyl)(ethyl)amino)ethanol] |
| 5.6 to 8.5 nM | CCN(CCCOc1ccc(-c2cccc(S(=O)(=O)C3CC3)c2)c2c1[nH]c1ncc(C)cc12)CCOP(=O)(O)O [Compound 272, 2-((3-(5-(3-(cyclopropylsulfonyl)phenyl)-3-methyl-9H-pyrido[2,3-b]indol-8-yloxy)propyl)(ethyl)amino)ethyl dihydrogen phosphate] |
| 5.6 to 8.5 nM | CCN(CCO)CCCOc1ccc(-c2cccc(C(=O)NC3CC3)c2)c2c1[nH]c1ncc(C)cc12 [Compound 273, N-cyclopropyl-3-(8-(3-(ethyl(2-hydroxyethyl)amino)propoxy)-3-methyl-9H-pyrido[2,3-b]indol-5-yl)benzamide] |
| 5.6 to 8.5 nM | CCN(CCO)CCCOc1ccc(-c2cccc(S(=O)(=O)CC)c2)c2c1[nH]c1ncc(C)cc12 [Compound 276, 2-(ethyl(3-(5-(3-(ethylsulfonyl)phenyl)-3-methyl-9H-pyrido[2,3-b]indol-8-yloxy)propyl)amino)ethanol] |
| 8.6 to 13 nM | CN1CCC(COc2ccc(-c3cccc(S(=O)(=O)C4CC4)c3)c3c2[nH]c2ncc(Cl)cc23)CC1 [Compound 286, 3-chloro-5-(3-(cyclopropylsulfonyl)phenyl)-8-((1-methylpiperidin-4-yl)methoxy)-9H-pyrido[2,3-b]indole] |
| < 4 nM | CCS(=O)(=O)c1cccc(-c2ccc(OCCCO)c3[nH]c4ncc(Cl)cc4c23)c1 [Compound 291, 3-(3-chloro-5-(3-(ethylsulfonyl)phenyl)-9H-pyrido[2,3-b]indol-8-yloxy)propan-1-ol] |

Continued, compound first:

| SMILES | IC50 |
| --- | --- |
| CCS(=O)(=O)c1cccc(-c2ccc(OCCN(C)C)c3[nH]c4ncc(Cl)cc4c23)c1 [Compound 222, 2-(3-chloro-5-(3-(ethylsulfonyl)phenyl)-9H-pyrido[2,3-b]indol-8-yloxy)-N,N-dimethylethanamine] | 4 to 5.5 nM |
| CCS(=O)(=O)c1cccc(-c2ccc(OCCO)c3[nH]c4ncc(Cl)cc4c23)c1 [Compound 225, 2-(3-chloro-5-(3-(ethylsulfonyl)phenyl)-9H-pyrido[2,3-b]indol-8-yloxy)ethanol] | 4 to 5.5 nM |
| Cc1cnc2[nH]c3c(C)c(C(=O)NC4CCN(C)CC4)cc(-c4cccc(C(=O)NC5CC5)c4)c3c2c1 [Compound 228, 5-(3-(cyclopropylcarbamoyl)phenyl)-3,8-dimethyl-N-(1-methylpiperidin-4-yl)-9H-pyrido[2,3-b]indole-7-carboxamide] | > 13 nM |
| CCS(=O)(=O)c1cccc(-c2ccc(OC[C@H](O)CN(C)C)c3[nH]c4ncc(C)cc4c23)c1 [Compound 232, (R)-1-(dimethylamino)-3-(5-(3-(ethylsulfonyl)phenyl)-3-methyl-9H-pyrido[2,3-b]indol-8-yloxy)propan-2-ol] | 5.6 to 8.5 nM |
| CCS(=O)(=O)c1cccc(-c2ccc(OC[C@H](C)O)c3[nH]c4ncc(C)cc4c23)c1 [Compound 234, (S)-1-(5-(3-(ethylsulfonyl)phenyl)-3-methyl-9H-pyrido[2,3-b]indol-8-yloxy)propan-2-ol] | 4 to 5.5 nM |
| CCS(=O)(=O)c1cccc(-c2cc(NC(=O)CCN(C)C)c(OC)c3[nH]c4ncc(C)cc4c23)c1 [Compound 240, 3-(dimethylamino)-N-(5-(3-(ethylsulfonyl)phenyl)-8-methoxy-3-methyl-9H-pyrido[2,3-b]indol-7-yl)propanamide] | 5.6 to 8.5 nM |
| CCS(=O)(=O)c1cccc(-c2cc(NC(=O)C3CC3)c(OC)c3[nH]c4ncc(C)cc4c23)c1 [Compound 242, N-(5-(3-(ethylsulfonyl)phenyl)-8-methoxy-3-methyl-9H-pyrido[2,3-b]indol-7-yl)-cyclopropanecarboxamide] | 8.6 to 13 nM |
| CCS(=O)(=O)c1cccc(-c2cc(NC(=O)C3CCN(C(C)=O)CC3)c(OC)c3[nH]c4ncc(C)cc4c23)c1 [Compound 243, 1-acetyl-N-(5-(3-(ethylsulfonyl)phenyl)-8-methoxy-3-methyl-9H-pyrido[2,3-b]indol-7-yl)piperidine-4-carboxamide] | 8.6 to 13 nM |
| CCS(=O)(=O)c1cccc(-c2cc(N(C)C(=O)C3CC3)c(OC)c3[nH]c4ncc(C)cc4c23)c1 [Compound 253, N-(5-(3-(ethylsulfonyl)phenyl)-8-methoxy-3-methyl-9H-pyrido[2,3-b]indol-7-yl)-N-methylcyclopropanecarboxamide] | > 13 nM |
| CCS(=O)(=O)c1cccc(-c2ccc(OCCCN(C)C)c3[nH]c4ncc(C(F)(F)F)cc4c23)c1 [Compound 258, 3-(5-(3-(ethylsulfonyl)phenyl)-3-(trifluoromethyl)-9H-pyrido[2,3-b]indol-8-yloxy)-N,N-dimethylpropan-1-amine] | > 13 nM |
| COc1ccc(-c2cccc(C(=O)N3CCOCC3)c2)c2c1[nH]c1ncc(C)cc12 [Compound 259, (3-(8-methoxy-3-methyl-9H-pyrido[2,3-b]indol-5-yl)phenyl)(morpholino)methanone] | > 13 nM |
| CCN(CC)CCNC(=O)c1cc(-c2cccc(S(=O)(=O)CC)c2)c2c([nH]c3ncc(C)cc32)c1C [Compound 262, N-(2-(diethylamino)ethyl)-5-(3-(ethylsulfonyl)phenyl)-3,8-dimethyl-9H-pyrido[2,3-b]indole-7-carboxamide] | 8.6 to 13 nM |
| CCN(CCCOc1ccc(-c2cccc(C(=O)NC3CC3)c2)c2c1[nH]c1ncc(C)cc12)CCOP(=O)(O)O [Compound 275, 2-((3-(5-(3-(cyclopropylcarbamoyl)phenyl)-3-methyl-9H-pyrido[2,3-b]indol-8-yloxy)propyl)(ethyl)amino)ethyl dihydrogen phosphate] | 5.6 to 8.5 nM |
| CCN(CCCOc1ccc(-c2cccc(S(=O)(=O)CC)c2)c2c1[nH]c1ncc(C)cc12)CCOP(=O)(O)O [Compound 278, 2-(ethyl(3-(5-(3-(ethylsulfonyl)phenyl)-3-methyl-9H-pyrido[2,3-b]indol-8-yloxy)propyl)amino)ethyl dihydrogen phosphate] | 4 to 5.5 nM |
| CN1CCC(COc2ccc(-c3cccc(C(=O)NC4CC4)c3)c3c2[nH]c2ncc(Cl)cc23)CC1 [Compound 285, 3-(3-chloro-8-((1-methylpiperidin-4-yl)methoxy)-9H-pyrido[2,3-b]indol-5-yl)-N-cyclopropylbenzamide] | 8.6 to 13 nM |
| CCS(=O)(=O)c1cccc(-c2ccc(OCC3CCN(C)CC3)c3[nH]c4ncc(F)cc4c23)c1 [Compound 287, 5-(3-(ethylsulfonyl)phenyl)-3-fluoro-8-((1-methylpiperidin-4-yl)methoxy)-9H-pyrido[2,3-b]indole] | 5.6 to 8.5 nM |
